Assays:
[1] = tested on: P. aeruginosa PAO1 biofilms; test: PAO1 colony biofilm growth, viable cell count (Log10 CFU/cm^2); format: cell-based; details: for Effect of ferric ions alone on 96-h PAO1 biofilm growth (in words): 10, 25, 50 μM Fe^3+
Protocol: P. aeruginosa (PAO1) from a −80° C. freezer was streaked on tryptic soy agar (TSA, BD Difco™ Dehydrated Culture Media, DF0369-17-6) and incubated overnight at 37° C. The P. aeruginosa was maintained on TSA plates at 4° C. and an inoculum was prepared by transferring a touch from this plate into 10 mL of tryptic soy broth (BD Bacto™) and incubated overnight. Then, a volume of 100 μL (OD600=0.1) was used to seed 47-mm sterilized filter membranes (Membrane Solutions MCE Gridded Membrane Filter, Mixed Cellulose Esters Membrane Filter, Pore Size: 0.45 μm) on TSA petri dishes. The plates were incubated at either 37° C. or 33° C. At desired time points (0, 1, 2, 4, 8, 12, 16, 24, 32, 48, 72, 85, 96, and 120 h), the biofilm was suspended in 0.9% NaCl to prepare serial dilutions for colony forming unit (CFU) counting. The viable cell concentration (CFU/cm^2) was calculated according to the literature. All experiments were done under aseptic conditions. TSA and TSB were autoclaved at 121° C. and […] for 50 min/L.
To quantify the effects of G-EVs and D-EVs on the growth behavior of P. aeruginosa PAO1 biofilms, biofilms grown for 2 hr. (lag phase), 8 hr. (exponential phase), and 24 hr. (stationary phase) were tested. Briefly, an inoculum was prepared by transferring a touch from the P. aeruginosa PAO1-TSA plates into 10 ml of TSB and incubating the plates at 37° C. overnight. A volume of 2.5 μL (OD600˜0.5) was used to seed sterile 13-mm polycarbonate membranes (WHA10417401, Sigma-Aldrich) on TSA plates and incubated at 37° C. Biofilms grown for 2 hr. were treated with one dose of G-EVs (0.028 μg/μL) or D-EVs (0.33 μg/μL) and incubated at 37° C. for 24 hours. Biofilms grown for 8 hr. were treated with one dose of G-EVs (0.037 μg/μL) or D-EVs (0.33 μg/μL) and incubated at 37° C. for 24 hours. Three doses of D-EVs (0.33 μg/μL) were applied (one dose every 24 h) to biofilms grown for 24 h, and the plates were incubated at 37° C. Then viable cells were counted and reported as CFU/cm^2.
To test if the suppression of PAO1 biofilm growth is caused by D-EV-induced excessive iron uptake by D-EV recipient cells leading to the activation of bacterial cell death, the research team examined whether D-EV-induced excessive iron uptake could improve the poor efficacy of the D EVs against 96-h biofilms (FIG. 9D). […]
The viability of treated P. aeruginosa PAO1 biofilms was investigated and compared to control. P. aeruginosa PAO1 biofilms at 2 hr., 8 hr., 24 hr., 48 hr., and 96 hr. were individually treated with a one-dose of P. aeruginosa PAO1 D-EVs±iron (50 μM) and the biofilm inhibition was quantified in the term of log10 CFU·cm^−2.

[2] = tested on: planktonic Candida auris cells; test: Growth of planktonic C. auris cells (OD600); format: cell-based; details: one dose, PAO1 D-EVs 0.25 μg/μl, E. coli D-EVs 0.15 μg/μl, YPD broth
Protocol: (§1) FIGS. 16A-16H summarize the EV bacterial protocol adapted for a fungal pathogen, C. auris. […] Fungal cell growth was monitored by measuring the OD600 of the cell culture. […] FIG. 16D illustrates the overall cellular levels of ROS radicals (including ·O2^− and ·OH) of C. auris in YPD broth culture in response to bacterial D-EV treatments. After 24 hr. of growth, C. auris cell culture (OD600=0.5) was mixed with a Cellular ROS Assay Kit (ab186027) and further incubated for 1 hr. Then, one dose of D-EVs extracted from either PAO1 (0.25 μg/μl) or E. coli (0.15 μg/μl) was added, followed by immediate monitoring of changes in fluorescence intensity (n=4). […] H2O2 (20%) was used as a positive control to stimulate C. auris to produce ·OH species.
Candida auris (B11220, ATCC) frozen at −80° C. was activated in yeast peptone dextrose (YPD) broth overnight at 37° C. Cells were be maintained at 4° C. on YPD-agar plates. The in vitro C. auris biofilms were be prepared by first activating the cultures at 4° C. in YPD broth at 37° C., then transferring a volume of 2.5 μL (OD600˜0.5) onto sterile 13-mm polycarbonate membrane (WHA10417401, Sigma-Aldrich) on YPD-agar plates (FIG. 17). The plates were then incubated at 37° C. for 0 h, 24 h, 48 h, and 72 h, respectively, for the following experiments.

C. auris = test: Cellular ROS assay in C. auris culture; format: cell-based, Candida auris; details: PAO1 D-EVs 0.25 μg/μl, E. coli D-EVs 0.15 μg/μl; ertapenem, tetracycline 2 mg/mL
Protocol: as §1

## [Fe+3] [ferric ions]
[1]; 2, 8, 24, 48, 96 hr. biofilms, one dose D-EVs ± iron 50 μM, 24 hr. exposure
  Growth of PAO1 biofilms at 2-96 hr. after one dose (in words): increased
[1]; 96-h biofilms
  Effect of ferric ions alone on 96-h PAO1 biofilm growth (in words): marginally promoted biofilm growth
[1]; 96-h biofilms, listed as Ferric ions
  Effect of ferric ions alone on 96-h PAO1 biofilm growth (in words): very minimal effect
[1]; 96-h biofilms, ferric ions alone (10-50 μM), PBS control ~8.2
  Growth of 96-h PAO1 biofilm with ferric ions alone: 8.7 log10

## OO [H2O2 (30%), H2O2]
[2]
  C. auris growth (in words): effectively inhibited fungal growth

## C[C@@H](O)[C@H]1C(=O)N2C(C(=O)O)=C(S[C@@H]3CN[C@H](C(=O)Nc4cccc(C(=O)O)c4)C3)[C@H](C)[C@H]12 [ertapenem]
C. auris
  ROS production in C. auris (in words): No change in ROS production
